Data set [1] concerns Normal human dermal fibroblasts (NHDF). Put plainly: In vitro UVB photoprotection test (neutral red). As to conditions: UVB 400 mJ/cm^2, 0.9; 1.8; 3.9 a 7.8 μmol/l, 60 minutes pre-incubation. It counts as cell-based. The source says: Normal human dermal fibroblasts (NHDF) were used as an in vitro model. Cells were isolated from tissue specimens obtained from healthy patients undergoing plastic surgery at the Department of Plastic and Aesthetic Surgery (University Hospital Olomouc). The use of skin tissue was in accordance with the Ethics Committee of the University Hospital and Faculty of Medicine and Dentistry, Palacký University, Olomouc and all patients signed written informed consent. Fibroblasts were used between the 2nd and 4th passage. For all experiments the fibroblasts were seeded onto 96-well plates at a density of 0.8×10^5 cells/ml (0.2 ml per well) of cultivation medium (DMEM supplemented with foetal calf serum (10%, v/v), penicillin […] and streptomycin (100 U/ml)).
Test compounds included 6-(3-methoxybenzylamino)-9-β-D-arabinofuranosylpurine. […] Intensity of UVA or UVB radiation was evaluated before each irradiation by UVA- or UVB-meter. […] After 24 hours (37° C., 5% CO2) cell damage was evaluated by neutral red (NR) incorporation into viable cells. […] After 5 minutes of intensive shaking absorbance was measured at 540 nm. […] Photoprotective effect was evaluated by comparison of experimental data (absorbance) of test compounds with a positive control and a negative control (according to the following equation: […]

Data set [2] relates to EpiDERM 3D model of epidermis. In words: In vitro test of skin irritation in EpiDERM. It counts as cell-based. On the procedure:
EpiDERM™ is a 3D model of epidermis manufactured by Mattek company. The effects of tested substances are evaluated by MTT. 2 solutions (2 application forms) of the compounds 6-furfurylamino-9-β-D-arabinofuranosylpurine and 6-(3-methoxybenzylamino)-9-β-D-arabinofuranosylpurine in concentrations 1 mM a 200 microM in 0.5% DMSO/99.5% PBS were evaluated according to a standard protocol “INVITRO EpiDerm™ SKIN IRRITATION TEST”. After a preincubation of the tissues, 30 microliters of the application form solution were applied on the individual tissues. The exposition time was 60 minutes. Three tissues were used for each tested concentration as well as for controls. Following washing out of the applied solution, the tissues were incubated for 42 hour in order to allow a reparation of possible damage. In the next step, the tissue was incubated with MTT for 3 hours. The resulting formazan was extracted to isopropanol. Relative viability of the individual tissues was calculated as a percentage of viability of the average of the negative controls. Average viability of the tissues treated with 1 mM solution of the test substance was 99.3% for the compound 6-(3-methoxybenzylamino)-9-β-D-arabinofuranosylpurine and 98.0% for the compound 6-(furfurylamino)-9-β-D-arabinofuranosylpurine where 100% is an average viability of the tissues treated with the solvent only. None of the tested compounds in any of the concentrations caused any tissue damage or irritation. The compounds were evaluated as non-irritant in the tested concentrations.

Data set [3] concerns detached leaf segments of Triticum aestivum cv. Hereward. In words: Senescence bioassay on wheat leaf segments (chlorophyll retention). As to conditions: chlorophyll retention at maximum effective concentration, 96 h dark.

Each structure is given as a SMILES string.

For `COc1cccc(CNc2ncnc3c2ncn3[C@@H]2O[C@H](CO)[C@@H](O)[C@@H]2O)c1` [6-(3-methoxybenzylamino)-9-β-D-arabinofuranosylpurine], the “viability after UVB vs DMSO control (photoprotection)” value in data set [1] is on record as “higher viability”. In addition, the skin irritation evaluation result in data set [2] (1 mM and 200 microM in 0.5% DMSO/99.5% PBS) was “non-irritant”. In data set [2] (1 mM solution, 60 minutes exposition, 100% = solvent only), the “Average viability of the tissues” value is 99.3%. Further, the “activity (%) [10^−4 mol · l^−1 BAP = 100%]” value in data set [3] stood at 118 ± 2%.

The values above are taken from patent publication US10100077B2, “6-aryl-9-glycosylpurines and use thereof” (UNIVERZITA PALACKEHO V OLOMOUCI, priority 2014, dated 2018).
